Laboratory results published in US8178538B2, “Pyridazinones” (Hoffmann-La Roche Inc., priority 2008, dated 2012).

Biological target: T1, PDE10A2 (Homo sapiens, UniProt Q9Y233)
T1 construct: residues serine 449 to aspartate 789; His6 (H6) with thrombin cleavage site (N, cleaved yes); made in house; host or cells: E. coli BL21(DE3) pLysS
Experiment: PDE10A2 inhibition, Scintillation Proximity Assay (SPA)
Type: biochemical
Settings: catalytic domain of human PDE10A2 (S449-D789), 0.25 nM enzyme, 50 nM cGMP + 50 nM [3H]-cGMP, 30 minutes at room temperature
Method: The following tests were carried out in order to determine the activity of the compounds of the present invention. PDE10 activity of the compounds of the present invention is determined using a Scintillation Proximity Assay (SPA)-based method similar to the one previously described (Fawcett, L. et al., Proc Natl Acad Sci USA (2000) 97(7):3702-3707).
PDE10A1 and PDE10A2 are two splice variants of PDE10A. There are these 2 splice variants known, which differ in the N-terminal part of the protein. The catalytic domains of PDE10A1 and PDE10A2 are identical. The assay for PDE10A2 described below is therefore also representative for PDE10A1 and also for PDE10A in general.
The PDE10A2 assay was performed in a two step procedure in 96-well micro titer plates. The reaction mixture of 80 μl contained 20 mM HEPES/10 mM MgCl2/[…] (pH 7.5), 50 nM cGMP (Sigma) and 50 nM [^3H]-cGMP (GE Healthcare), 0.25 nM PDE10A2 with or without a specific test compound. A range of concentrations of the potential inhibitor was used to generate data for calculating the concentration of inhibitor resulting in 50% of the effect (e.g. IC50, the concentration of the competitor inhibiting PDE10A2 activity 50%). Non-specific activity was tested without the enzyme. The reaction was initiated by addition of the substrate solution (cGMP and [^3H]-cGMP) and allowed to progress for 30 minutes at room temperature. The reaction was terminated by transferring 50 μl of the reaction mixture into an OptiPlate (Perkin Elmer) containing 25 μl of YSi-SPA scintillation beads (GE Healthcare) in 18 mM zinc sulphate solution (stop reagent). After 1 h under shaking, the plate was centrifuged one minute at 1000 rpm to allow beads to settle. Afterwards, radioactive counts were measured on a Perkin Elmer TopCount Scintillation plate reader.
The catalytic domain of human PDE10A2, residues serine 449 to aspartate 789, was amplified by PCR using cDNA (Origene) and the oligonucleotides 5′-GGGGACAAGTTT […]-3′ (SEQ ID NO. 1) (with AttB1 recombination site in bold and thrombin protease cleavage site in italics) and 5′-[…] GCTG-3′ (SEQ ID NO. 2) (with AttB2 recombination site in bold) which conferred Gateway recombination sites. The PCR product was used in a BP recombination reaction with pDONR221 to generate pENTR Thm-PDE10A2(S449-D789) which was DNA sequence verified and then used in an LR recombination reaction with a Gateway modified version of pET11a. The resulting expression vector, placT7.2H6-(gw1)-Thm-PDE10A2(S449-D789) was DNA sequence confirmed and transformed into E. coli strain BL21(DE3) pLysS and recombinant protein was produced in TB medium at 20° C. by induction to a final IPTG concentration of 0.5 mM at an optical density of 1.0 at 600 nm for 20 hours. About 30% of the protein was in the soluble fraction of the cell homogenate. The protein was purified using sequential chromatography on Ni-NTA and HiTrapQ/HiTrapS. After thrombin digest at room temperature a HiTrapChelating/HiTrap Benzamindin chromatography removed impurities, uncleaved protein and thrombin. Final purification of PDE10A2(S449-D789) was performed on a Superdex 75 size exclusion chromatography equilibrated with 25 mM HEPES pH 8.4, 0.15 M NaCl. The yield of pure protein was 2 mg/liter of culture volume is relatively low. The purity of the protein was >95%, monomeric and monodisperse as shown by SDS-PAGE, HPLC and analytical ultracentrifugation.

T1 sequence (Q9Y233 715-1055): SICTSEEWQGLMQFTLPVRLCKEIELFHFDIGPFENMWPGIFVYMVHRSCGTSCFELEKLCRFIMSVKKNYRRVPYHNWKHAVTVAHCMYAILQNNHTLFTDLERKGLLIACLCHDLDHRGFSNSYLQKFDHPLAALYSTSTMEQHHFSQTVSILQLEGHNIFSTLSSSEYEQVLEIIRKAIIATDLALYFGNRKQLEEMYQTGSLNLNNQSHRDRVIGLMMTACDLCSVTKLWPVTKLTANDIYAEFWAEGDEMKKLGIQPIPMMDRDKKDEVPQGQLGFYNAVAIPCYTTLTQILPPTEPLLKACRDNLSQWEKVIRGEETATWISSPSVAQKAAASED

IC50 [nM] | Structure (SMILES)
167 | O=c1ccn(-c2ccccc2)nc1-c1ccnn1-c1ccncc1 [Example 15, 1-Phenyl-3-(2-pyridin-4-yl-2H-pyrazol-3-yl)-1H-pyridazin-4-one]
13 | O=c1ccn(-c2cccc(OC(F)(F)F)c2)nc1-c1ccnn1-c1cccc2ncccc12 [Example 203, 3-(2-Quinolin-5-yl-2H-pyrazol-3-yl)-1-(3-trifluoromethoxy-phenyl)-1H-pyridazin-4-one]
33 | O=c1ccn(-c2cccc(OC(F)F)c2)nc1-c1ccnn1-c1cc(F)ccc1F [Example 116, 1-(3-Difluoromethoxy-phenyl)-3-[2-(2,5-difluoro-phenyl)-2H-pyrazol-3-yl]-1H-pyridazin-4-one]
92 | CS(=O)(=O)c1ccc(-n2ccc(=O)c(-c3ccnn3-c3cccc(Cl)c3)n2)cc1 [Example 157, 3-[2-(3-Chloro-phenyl)-2H-pyrazol-3-yl]-1-(4-methanesulfonyl-phenyl)-1H-pyridazin-4-one]
45 | CS(=O)(=O)c1cccc(-n2ccc(=O)c(-c3ccnn3-c3ccccc3)n2)c1 [Example 30, 1-(3-Methanesulfonyl-phenyl)-3-(2-phenyl-2H-pyrazol-3-yl)-1H-pyridazin-4-one]
6 | CC(=O)N(C)c1cccc(-n2ccc(=O)c(-c3ccnn3-c3ccccc3F)n2)c1 [Example 294, N-(3-{3-[2-(2-Fluoro-phenyl)-2H-pyrazol-3-yl]-4-oxo-4H-pyridazin-1-yl}-phenyl)-N-methyl-acetamide]
49 | CS(=O)(=O)c1cccc(-n2ccc(=O)c(-c3ccnn3-c3cc(F)ccc3F)n2)c1 [Example 87, 3-[2-(2,5-Difluoro-phenyl)-2H-pyrazol-3-yl]-1-(3-methanesulfonyl-phenyl)-1H-pyridazin-4-one]
101 | O=c1ccn(-c2ccc(C(F)(F)F)cc2)nc1-c1ccnn1-c1ccc(Cl)c2ccccc12 [Example 237, 3-[2-(4-Chloro-naphthalen-1-yl)-2H-pyrazol-3-yl]-1-(4-trifluoromethyl-phenyl)-1H-pyridazin-4-one]
38 | CNC(=O)c1cccc(-n2ccc(=O)c(-c3ccnn3-c3ccccc3F)n2)c1 [Example 293, 3-{3-[2-(2-Fluoro-phenyl)-2H-pyrazol-3-yl]-4-oxo-4H-pyridazin-1-yl}-N-methyl-benzamide]
26 | CC(O)c1cccc(-n2ccc(=O)c(-c3ccnn3-c3ccccc3F)n2)c1 (stereo not shown) [Example 298, 3-[2-(2-Fluoro-phenyl)-2H-pyrazol-3-yl]-1-[3-(1-hydroxy-ethyl)-phenyl]-1H-pyridazin-4-one]
378 | O=c1ccn(-c2ccccc2)nc1-c1ccnn1-c1ccnc(Cl)c1 [Example 25, 3-[2-(2-Chloro-pyridin-4-yl)-2H-pyrazol-3-yl]-1-phenyl-1H-pyridazin-4-one]
5 | N#Cc1cccc(-n2ccc(=O)c(-c3ccnn3-c3ccnc4ccccc34)n2)c1 [Example 207, 3-[4-Oxo-3-(2-quinolin-4-yl-2H-pyrazol-3-yl)-4H-pyridazin-1-yl]-benzonitrile]
14 | O=c1ccn(-c2ccc(OC(F)F)cc2)nc1-c1ccnn1-c1ccnc2ccc(F)cc12 [Example 149, 1-(4-Difluoromethoxy-phenyl)-3-[2-(6-fluoro-quinolin-4-yl)-2H-pyrazol-3-yl]-1H-pyridazin-4-one]
2 | O=c1ccn(-c2ccc(OC(F)(F)F)cc2)nc1-c1ccnn1-c1ccnc2ccccc12 [Example 186, 3-(2-Quinolin-4-yl-2H-pyrazol-3-yl)-1-(4-trifluoromethoxy-phenyl)-1H-pyridazin-4-one]
22 | O=c1ccn(-c2ccc(OC(F)(F)F)cc2)nc1-c1ccnn1-c1ccnc2ccc(Cl)cc12 [Example 224, 3-[2-(6-Chloro-quinolin-4-yl)-2H-pyrazol-3-yl]-1-(4-trifluoromethoxy-phenyl)-1H-pyridazin-4-one]
29 | N#Cc1cccc(-n2nccc2-c2nn(-c3ccc(OC(F)(F)F)cc3)ccc2=O)c1 [Example 36, 3-{5-[4-Oxo-1-(4-trifluoromethoxy-phenyl)-1,4-dihydro-pyridazin-3-yl]-pyrazol-1-yl}-benzonitrile]
